Measurements from publication PMC6585443 (ACS infectious diseases, 2018).
In brackets after ≈: the same amount, converted by molar mass.

Tests used:
[1] = tested on: human kinases involved in cellular proliferation; details: cited from earlier work
[2] = tested on: P. falciparum W2; test: P. falciparum W2 antimalarial activity; type: cell-based, Plasmodium falciparum; details: less potent against W2 (CQ resistant) than D6
[3] = tested on: P. berghei; test: modified Thompson in vivo infection model; details: mice, intraperitoneal 160 mg/kg/day × 3 days; for parasitemia: days 3 to 5 post-infection
[4] = aqueous solubility pH 7.4; type: physicochemical
[5] = tested on: P. falciparum D6; test: P. falciparum D6 antimalarial activity; type: cell-based, Plasmodium falciparum; details: D6 strain
[6] = tested on: P. falciparum C235; test: P. falciparum C235 antimalarial activity; type: cell-based, Plasmodium falciparum; details: less potent against C235 (CQ, MQ, pyrimethamine resistant) than D6
[7] = target: T1, Aurora A (Homo sapiens, UniProt O14965); test: human kinase panel at 5 μM; type: biochemical; details: test concentration 5 μM
T1 sequence (O14965 1-403): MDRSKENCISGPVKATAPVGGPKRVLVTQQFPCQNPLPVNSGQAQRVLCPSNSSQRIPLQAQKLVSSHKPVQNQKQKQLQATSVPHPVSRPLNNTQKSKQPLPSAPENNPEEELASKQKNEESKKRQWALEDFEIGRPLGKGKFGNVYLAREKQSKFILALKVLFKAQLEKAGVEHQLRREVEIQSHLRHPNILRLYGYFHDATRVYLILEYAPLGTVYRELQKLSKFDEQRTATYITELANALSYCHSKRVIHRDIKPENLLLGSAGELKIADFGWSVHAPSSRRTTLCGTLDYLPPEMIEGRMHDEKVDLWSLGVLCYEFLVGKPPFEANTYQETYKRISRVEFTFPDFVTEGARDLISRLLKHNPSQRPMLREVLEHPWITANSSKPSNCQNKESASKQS

[8] = target: MNK2 (Homo sapiens, UniProt Q9HBH9); test: human kinase panel at 5 μM; type: biochemical; details: test concentration 5 μM
Sequence of MNK2 (Q9HBH9 whole entry): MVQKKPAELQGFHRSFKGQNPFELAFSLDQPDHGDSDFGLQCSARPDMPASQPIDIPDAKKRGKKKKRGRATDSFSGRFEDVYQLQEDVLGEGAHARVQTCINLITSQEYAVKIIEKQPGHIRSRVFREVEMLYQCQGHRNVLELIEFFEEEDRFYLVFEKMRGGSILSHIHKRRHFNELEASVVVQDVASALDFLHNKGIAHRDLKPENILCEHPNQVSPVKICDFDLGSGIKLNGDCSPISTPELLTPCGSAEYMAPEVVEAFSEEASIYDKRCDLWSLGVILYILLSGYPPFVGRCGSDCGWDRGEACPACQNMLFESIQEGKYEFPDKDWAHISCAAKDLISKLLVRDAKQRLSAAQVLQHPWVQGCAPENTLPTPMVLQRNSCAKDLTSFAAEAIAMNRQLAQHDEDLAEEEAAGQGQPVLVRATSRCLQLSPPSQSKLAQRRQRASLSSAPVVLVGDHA

[9] = target: KDR (Homo sapiens, UniProt P35968); test: human kinase panel at 5 μM; type: biochemical; details: test concentration 5 μM
Sequence of KDR (P35968 20-1356): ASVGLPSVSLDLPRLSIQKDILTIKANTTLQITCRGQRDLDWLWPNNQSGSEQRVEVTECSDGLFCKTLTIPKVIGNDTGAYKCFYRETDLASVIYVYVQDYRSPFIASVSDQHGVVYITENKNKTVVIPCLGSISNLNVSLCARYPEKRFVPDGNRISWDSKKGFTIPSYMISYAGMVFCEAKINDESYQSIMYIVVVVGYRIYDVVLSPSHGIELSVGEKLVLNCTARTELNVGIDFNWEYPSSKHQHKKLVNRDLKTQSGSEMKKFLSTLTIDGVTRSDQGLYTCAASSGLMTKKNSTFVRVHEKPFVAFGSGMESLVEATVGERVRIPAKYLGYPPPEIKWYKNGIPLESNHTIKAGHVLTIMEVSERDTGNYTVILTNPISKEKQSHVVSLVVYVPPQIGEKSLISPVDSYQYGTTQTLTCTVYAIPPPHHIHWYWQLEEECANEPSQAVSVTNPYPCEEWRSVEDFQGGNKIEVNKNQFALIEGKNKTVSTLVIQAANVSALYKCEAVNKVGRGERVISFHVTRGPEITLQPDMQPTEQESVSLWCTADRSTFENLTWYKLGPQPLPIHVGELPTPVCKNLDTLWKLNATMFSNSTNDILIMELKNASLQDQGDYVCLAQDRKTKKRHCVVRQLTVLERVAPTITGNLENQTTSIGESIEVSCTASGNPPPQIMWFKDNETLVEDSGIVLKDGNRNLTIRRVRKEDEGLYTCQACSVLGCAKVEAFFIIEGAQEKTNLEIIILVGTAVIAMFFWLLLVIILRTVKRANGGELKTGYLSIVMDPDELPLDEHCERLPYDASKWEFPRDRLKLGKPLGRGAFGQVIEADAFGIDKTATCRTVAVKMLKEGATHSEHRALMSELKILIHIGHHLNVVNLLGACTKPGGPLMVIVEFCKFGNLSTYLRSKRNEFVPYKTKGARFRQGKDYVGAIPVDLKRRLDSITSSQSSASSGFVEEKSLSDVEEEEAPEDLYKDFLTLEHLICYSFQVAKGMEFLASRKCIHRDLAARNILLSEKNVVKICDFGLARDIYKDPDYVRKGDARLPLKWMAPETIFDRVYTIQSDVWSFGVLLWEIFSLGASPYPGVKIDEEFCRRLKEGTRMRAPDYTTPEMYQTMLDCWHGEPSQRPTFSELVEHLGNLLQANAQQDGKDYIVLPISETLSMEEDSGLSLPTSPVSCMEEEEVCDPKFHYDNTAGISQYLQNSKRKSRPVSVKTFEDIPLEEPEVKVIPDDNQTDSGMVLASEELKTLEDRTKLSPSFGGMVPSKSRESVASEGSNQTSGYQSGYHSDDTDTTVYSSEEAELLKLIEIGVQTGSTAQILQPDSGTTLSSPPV

[10] = target: Abl (Homo sapiens, UniProt P00519); test: human kinase panel at 5 μM; type: biochemical; details: test concentration 5 μM
Sequence of Abl (P00519 whole entry): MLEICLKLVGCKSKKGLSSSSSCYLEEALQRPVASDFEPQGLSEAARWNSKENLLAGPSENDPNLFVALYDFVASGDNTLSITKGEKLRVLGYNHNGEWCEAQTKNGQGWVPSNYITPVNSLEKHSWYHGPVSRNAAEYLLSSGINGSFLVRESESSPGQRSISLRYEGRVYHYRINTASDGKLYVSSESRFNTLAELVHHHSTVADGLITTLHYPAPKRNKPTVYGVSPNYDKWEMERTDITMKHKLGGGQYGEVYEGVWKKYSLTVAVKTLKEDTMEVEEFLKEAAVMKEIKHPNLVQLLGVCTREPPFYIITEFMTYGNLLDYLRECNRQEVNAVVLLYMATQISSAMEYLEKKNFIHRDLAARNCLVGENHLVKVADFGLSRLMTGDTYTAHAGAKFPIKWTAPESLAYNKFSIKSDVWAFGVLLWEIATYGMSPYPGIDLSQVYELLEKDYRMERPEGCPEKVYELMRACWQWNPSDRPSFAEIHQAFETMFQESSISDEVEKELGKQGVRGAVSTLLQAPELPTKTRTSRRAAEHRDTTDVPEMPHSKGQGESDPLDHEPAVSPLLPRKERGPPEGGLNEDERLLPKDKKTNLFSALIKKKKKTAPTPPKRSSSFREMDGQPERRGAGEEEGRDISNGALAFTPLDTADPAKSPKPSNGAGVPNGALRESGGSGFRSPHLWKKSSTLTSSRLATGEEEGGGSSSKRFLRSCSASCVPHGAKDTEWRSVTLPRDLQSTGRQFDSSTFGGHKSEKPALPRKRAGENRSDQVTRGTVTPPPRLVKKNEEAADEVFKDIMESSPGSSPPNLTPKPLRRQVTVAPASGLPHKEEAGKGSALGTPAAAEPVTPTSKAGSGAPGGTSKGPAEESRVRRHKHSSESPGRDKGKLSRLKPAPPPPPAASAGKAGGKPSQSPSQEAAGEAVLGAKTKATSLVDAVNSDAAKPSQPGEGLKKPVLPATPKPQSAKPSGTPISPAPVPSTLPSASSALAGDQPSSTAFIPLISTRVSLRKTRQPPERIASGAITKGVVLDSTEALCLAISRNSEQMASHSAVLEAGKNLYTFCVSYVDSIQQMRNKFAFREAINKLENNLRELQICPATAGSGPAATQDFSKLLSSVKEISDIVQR

[11] = target: EGFR (Homo sapiens, UniProt P00533); test: human kinase panel at 5 μM; type: biochemical; details: test concentration 5 μM
Sequence of EGFR (P00533 25-1210): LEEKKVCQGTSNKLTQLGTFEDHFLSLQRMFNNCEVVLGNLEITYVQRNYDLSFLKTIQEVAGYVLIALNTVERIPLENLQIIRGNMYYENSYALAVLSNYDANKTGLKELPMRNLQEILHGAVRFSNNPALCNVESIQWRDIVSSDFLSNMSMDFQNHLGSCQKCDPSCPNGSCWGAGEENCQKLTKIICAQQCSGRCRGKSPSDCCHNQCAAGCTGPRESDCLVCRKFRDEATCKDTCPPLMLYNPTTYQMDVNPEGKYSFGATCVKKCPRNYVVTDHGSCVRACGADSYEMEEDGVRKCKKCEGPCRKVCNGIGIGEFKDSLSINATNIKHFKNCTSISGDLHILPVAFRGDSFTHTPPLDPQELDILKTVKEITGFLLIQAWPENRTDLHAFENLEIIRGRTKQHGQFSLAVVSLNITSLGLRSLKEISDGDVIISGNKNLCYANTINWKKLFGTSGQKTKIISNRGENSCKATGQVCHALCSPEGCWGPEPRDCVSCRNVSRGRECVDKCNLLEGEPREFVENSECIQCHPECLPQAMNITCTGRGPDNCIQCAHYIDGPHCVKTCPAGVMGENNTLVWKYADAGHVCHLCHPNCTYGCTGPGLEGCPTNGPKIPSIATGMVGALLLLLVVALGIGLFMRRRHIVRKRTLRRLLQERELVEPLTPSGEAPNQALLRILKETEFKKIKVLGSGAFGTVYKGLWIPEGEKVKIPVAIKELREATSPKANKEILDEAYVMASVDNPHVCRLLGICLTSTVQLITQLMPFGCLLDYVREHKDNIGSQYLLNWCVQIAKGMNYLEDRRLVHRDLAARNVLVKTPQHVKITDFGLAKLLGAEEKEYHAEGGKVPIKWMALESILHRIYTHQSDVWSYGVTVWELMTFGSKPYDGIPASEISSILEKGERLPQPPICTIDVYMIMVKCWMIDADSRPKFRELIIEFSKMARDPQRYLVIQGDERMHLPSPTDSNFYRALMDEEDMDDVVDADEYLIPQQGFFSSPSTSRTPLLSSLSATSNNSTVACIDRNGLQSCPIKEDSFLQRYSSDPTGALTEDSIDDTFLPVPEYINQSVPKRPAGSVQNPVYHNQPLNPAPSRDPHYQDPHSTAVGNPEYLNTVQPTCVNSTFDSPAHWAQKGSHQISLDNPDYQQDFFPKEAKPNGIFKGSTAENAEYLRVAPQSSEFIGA

[12] = tested on: panel of human kinases; test: human kinase panel at 5 μM; type: biochemical; details: test concentration 5 μM
[13] = target: MAP4K4 (Homo sapiens, UniProt O95819); test: human kinase panel at 5 μM; type: biochemical; details: test concentration 5 μM
[14] = rat hepatocyte intrinsic clearance; type: in vitro ADME; details: rat hepatocytes
[15] = LogD7.4; type: physicochemical; details: pH 7.4
[16] = human liver microsome intrinsic clearance; type: in vitro ADME; details: liver microsomes
[17] = aqueous solution at pH 7.4, pH 7.4, aqueous buffer

## CS(=O)(=O)CCNCc1ccc(-c2ccc3ncnc(Nc4ccc(OCc5cccc(F)c5)c(Cl)c4)c3c2)o1 [Compound 1, lapatinib]
[1]
  selectivity versus numerous human kinases: > 300 fold

## COc1ccc(Nc2ccnc3cc(-c4ccc(S(=O)(=O)N5CCN(C)CC5)cc4)ccc23)cc1Cl [Compound 7, N-(3-Chloro-4-methoxyphenyl)-7-{4-[(4-methylpiperazin-1-yl)sulfonyl]phenyl}quinolin-4-amine]
[2]
  activity against W2 strain relative to D6 (fold): > 3 fold
[3]
  life extension compared to the control group: 5 days
  parasitemia: reduction in parasitemia
[4]; aqueous medium, pH 7.4, aqueous buffer
  solubility: 100 µM (≈ 52.3 µg/mL)

## Cc1ccc(Nc2ccnc3cc(-c4ccc(S(=O)(=O)N5CCN(C)CC5)cc4)ccc23)cc1Cl [Compound 11, N-(3-Chloro-4-methylphenyl)-7-{4-[(4-methylpiperazin-1-yl)sulfonyl]phenyl}quinolin-4-amine]
[2]
  activity against W2 strain relative to D6 (fold): > 3 fold

## CN1CCN(S(=O)(=O)c2ccc(-c3ccc4c(Nc5cccnc5)ccnc4c3)cc2)CC1 [Compound 12, 7-{4-[(4-Methylpiperazin-1-yl)sulfonyl]phenyl}-N-(pyridin-3-yl)quinolin-4-amine]
[5]
  reduction in potency compared to 3: 10 fold

## CN1CCN(S(=O)(=O)c2ccc(-c3ccc4c(Nc5cnccn5)ccnc4c3)cc2)CC1 [Compound 14, 7-{4-[(4-Methylpiperazin-1-yl)sulfonyl]phenyl}-N-(pyrazin-2-yl)quinolin-4-amine]
[2]
  activity against W2 strain relative to D6 (fold): > 3 fold

## CN1CCN(S(=O)(=O)c2ccc(-c3ccc4c(Nc5cnc(C#N)cn5)ccnc4c3)cc2)CC1 [Compound 19, 5-[(7-{4-[(4-Methylpiperazin-1-yl)sulfonyl]phenyl}quinolin-4-yl)amino]pyrazine-2-carbonitrile]
[2]
  activity against W2 strain relative to D6 (fold): > 3 fold

## CN1CCN(S(=O)(=O)c2ccc(-c3ccc4c(Nc5ncc(Cl)cn5)ccnc4c3)cc2)CC1 [Compound 21, N-(5-Chloropyrimidin-2-yl)-7-{4-[(4-methylpiperazin-1-yl)sulfonyl]phenyl}quinolin-4-amine]
[2]
  activity against W2 strain relative to D6 (fold): > 3 fold
[6]
  activity against C235 strain relative to D6 (fold): > 3 fold

## Cc1nnc(Nc2ccnc3cc(-c4ccc(S(=O)(=O)N5CCN(C)CC5)cc4)ccc23)nc1C [Compound 23, N-(Dimethyl-1,2,4-triazin-3-yl)-7-{4-[(4-methylpiperazin-1-yl)sulfonyl]phenyl}quinolin-4-amine]
[2]
  activity against W2 strain relative to D6 (fold): > 3 fold

## Cc1cc(Nc2ccnc3cc(-c4ccc(S(=O)(=O)N5CCN(C)CC5)cc4)ccc23)sn1 [Compound 24, N-(3-Methyl-1,2-thiazol-5-yl)-7-{4-[(4-methylpiperazin-1-yl)sulfonyl]phenyl}quinolin-4-amine]
[2]
  activity against W2 strain relative to D6 (fold): > 3 fold

## CN1CCN(c2nsnc2-c2ccc3c(Nc4ccc(OCc5cccc(F)c5)c(Cl)c4)ccnc3c2)CC1 [Compound 30, N-(3-Chloro-4-((3-fluorobenzyl)oxy)phenyl)-7-(4-(4-methylpiperazin-1-yl)-1,2,5-thiadiazol-3-yl)quinolin-4-amine]
[5]
  reduction in potency compared to 3: six-fold reduction in potency

## CC(C)(C)OC(=O)Nc1ccc2c(Nc3ccc(OCc4cccc(F)c4)c(Cl)c3)ccnc2c1 [Compound 36, Tert-butyl (4-((3-Chloro-4-((3-fluorobenzyl)oxy)phenyl)amino)quinolin-7-yl)carbamate]
[2]
  activity against W2 strain relative to D6 (fold): > 3 fold
[5]
  reduction in potency compared to 3: almost three-fold drop in potency

## CN1CCN(c2ncc(-c3ccc4c(Nc5cnccn5)ccnc4c3)cn2)CC1 [Compound 40, 7-(2-(4-Methylpiperazin-1-yl)pyrimidin-5-yl)-N-(pyrazin-2-yl)quinolin-4-amine]
[7]
  inhibition of Aurora A: significant inhibition
[8]
  inhibition of MNK2: significant inhibition
[9]
  inhibition of KDR: significant inhibition
[10]
  inhibition of Abl: significant inhibition
[3]
  parasitemia: reduction in parasitemia
[11]
  inhibition of EGFR: significant inhibition
[12]
  number of kinases with insignificant inhibition: 28 kinases
  number of kinases with moderate to weak inhibition: 10 kinases
[13]
  inhibition of MAP4K4: significant inhibition
[14]
  Rat Hepatocyte CLint: 130 μL/min/10^6

## COc1ccc(Nc2ccnc3cc(-c4cnc(N5CCN(C)CC5)nc4)ccc23)cc1Cl [Compound 41, N-(3-Chloro-4-methoxyphenyl)-7-(2-(4-methylpiperazin-1-yl)pyrimidin-5-yl)quinolin-4-amine]
[4]; [17]
  solubility: < 1 µM
[14]
  Rat Hepatocyte CLint: 45 μL/min/10^6

## CN1CCN(c2ncc(-c3ccc4c(Nc5ccc6[nH]nnc6c5)ccnc4c3)cn2)CC1 [Compound 42, N-(1H-Benzo[d][1,2,3]triazol-5-yl)-7-(2-(4-methylpiperazin-1-yl)pyrimidin-5-yl)quinolin-4-amine]
[15]
  logD: 3.3
[16]
  microsomal CLint: 120 µL/min/mg
[4]; [17]
  solubility: < 1 µM
[14]
  Rat Hepatocyte CLint: 51 μL/min/10^6

## c1cnc(Nc2ccnc3cc(-c4cn[nH]c4)ccc23)cn1 [Compound 43, N-(Pyrazin-2-yl)-7-(1H-pyrazol-4-yl)quinolin-4-amine]
[15]
  logD: 2.6
[16]
  microsomal CLint: 130 µL/min/mg
[4]; [17]
  solubility: 1 µM (≈ 0.288 µg/mL)
[14]
  Rat Hepatocyte CLint: 5.0 μL/min/10^6

## COc1ccc(Nc2ccnc3cc(-c4cn[nH]c4)ccc23)cc1Cl [Compound 44, N-(3-Chloro-4-methoxyphenyl)-7-(1H-pyrazol-4-yl)quinolin-4-amine]
[15]
  logD: 3.5
[16]
  microsomal CLint: 8 µL/min/mg
[4]; [17]
  solubility: 2 µM (≈ 0.702 µg/mL)
[14]
  Rat Hepatocyte CLint: 5.0 μL/min/10^6

## CN1CCN(c2ccc(Nc3ccc4c(Nc5cnccn5)ccnc4c3)cc2)CC1 [Compound 45, N^7-(4-(4-Methylpiperazin-1-yl)phenyl)-N^4-(pyrazin-2-yl)quinoline-4,7-diamine]
[15]
  logD: 2.2
[14]
  Rat Hepatocyte CLint: 10 μL/min/10^6

## CN1CCN(c2ccnc(Nc3ccc4c(Nc5cnccn5)ccnc4c3)n2)CC1 [Compound 46, N^7-(4-(4-Methylpiperazin-1-yl)pyrimidin-2-yl)-N^4-(pyrazin-2-yl)quinoline-4,7-diamine]
[15]
  logD: 2.8
[14]
  Rat Hepatocyte CLint: 9.3 μL/min/10^6

## COc1ccc(Nc2ccnc3cc(Nc4nccc(N5CCN(C)CC5)n4)ccc23)cc1Cl [Compound 47, N^4-(3-Chloro-4-methoxyphenyl)-N^7-(4-(4-methylpiperazin-1-yl)pyrimidin-2-yl)quinoline-4,7-diamine]
[15]
  logD: 3.3
[4]; [17]
  solubility: 570 µM (≈ 271 µg/mL)
[14]
  Rat Hepatocyte CLint: 7.2 μL/min/10^6

## CN1CCN(c2nccc(Nc3ccc4c(Nc5cnccn5)ccnc4c3)n2)CC1 [Compound 48, N^7-(2-(4-Methylpiperazin-1-yl)pyrimidin-4-yl)-N^4-(pyrazin-2-yl)quinoline-4,7-diamine]
[15]
  logD: 2.9

## COc1ccc(Nc2ccnc3cc(Nc4ccnc(N5CCN(C)CC5)n4)ccc23)cc1Cl [Compound 49, N^4-(3-Chloro-4-methoxyphenyl)-N^7-(2-(4-methylpiperazin-1-yl)pyrimidin-4-yl)quinoline-4,7-diamine]
[16]
  microsomal CLint: 45 µL/min/mg
[14]
  Rat Hepatocyte CLint: 2.3 μL/min/10^6
